Key:
[1] = tested on: A549; assay: Clonogenic assay; type: cell-based; settings: A549, adenocarcinoma
Description: (§1) Tested cells were seeded respectively in 6 well plates with 10^4 cells per well for 14 days. […] After the treatments, cells were washed with PBS, and the colonies were fixed with fix solution (methanol: acetic acid=3:1) and stained with 0.5% crystal violet in methanol. After removing the crystal violet carefully and rinse with tap water, the colonies were counted manually.

[2] = tested on: CL152; assay: Clonogenic assay; type: cell-based; settings: CL152, squamous cell carcinoma
Description: as §1

[3] = tested on: CL97; assay: Clonogenic assay; type: cell-based; settings: CL97, adenocarcinoma
Description: as §1

[4] = tested on: GBM8401; assay: Clonogenic assay; type: cell-based; settings: GBM8401, brain cancer
Description: as §1

[5] = tested on: CL97; assay: Tumor spheroid (sphere formation) assay; type: cell-based
[6] = tested on: U87MG; assay: Tumor spheroid (sphere formation) assay; type: cell-based; settings: brain cancer
[7] = tested on: MDA-MB-231; assay: Tumor spheroid (sphere formation) assay; type: cell-based; settings: MDA-MB-231, breast cancer
[8] = tested on: PANC-1; assay: Tumor spheroid (sphere formation) assay; type: cell-based; settings: PANC-1, pancreatic cancer
[9] = tested on: CL141; assay: Side population analysis by flow cytometry (Hoechst 33342); type: cell-based; settings: CL141, adenocarcinoma
Description: (§2) Single-cell suspensions of cells were detached from dishes with Trypsin-EDTA (Invitrogen) and suspended at 1×10^6 cells/mL in Hank's balanced salt solution ([…]) supplemented with 3% fetal calf serum and 10 mM Hepes. These cells were then incubated at 37° C. for 90 minutes with 20 μg/mL Hoechst 33342 (Sigma Chemical, St. Louis, Mo.). […] After 90 minutes incubation with indicated drugs, the cells were centrifuged immediately for 5 minutes at 300 g and 4° C. and resuspended in ice-cold HBSS, The cells were kept on ice to inhibit efflux of the Hoechst dye, and 1 μg/mL propidium iodide (PI, BD) were added to discriminate dead cells. Finally, these cells were filtered through a 40 μm cell strainer (BD) to obtain single-suspension cells. Cell dual-wavelength analysis and purification were performed on a dual-laser FACS Vantage SE (BD). Hoechst 33342 can be excited at 355 nm UV light and emitted blue fluorescence with a 450/20 band-pass (BP) filter and red fluorescence with a 675 nm edge filter long-pass (EFLP). A 610 nm dichroic mirror short-pass (DMSP) was used to separate the emission wavelengths. PI-positive (dead) cells were excluded from the analysis.
(§3) A549, A549-ON, CL97, CL141, HCC827, and H441 were lung adenocarcinoma cell lines. CL152, H2170, and H226 were squamous cell carcinoma cell lines. Cell viability was determined by SRB assay. […] To determine whether side population (SP) cells, which represent a cell population with CSC characteristics, exist in NSCLC cell lines, we stained the cells with the fluorescent dye, Hoechst 33342, and analyzed the cells with flow cytometry.

[10] = tested on: CL152; assay: as above; type: cell-based; settings: CL152, squamous cell carcinoma
Description: as §2, §3

[11] = tested on: CL97; assay: as above; type: cell-based; settings: CL97, adenocarcinoma
Description: as §2, §3

[12] = tested on: GBM8401; assay: as above; type: cell-based; settings: GBM8401, brain cancer
Description: (§4) Single-cell suspensions of cells were detached from dishes with Trypsin-EDTA (Invitrogen) and suspended at 1×10^6 cells/mL in Hank's balanced salt solution ([…]) supplemented with 3% fetal calf serum and 10 mM Hepes. These cells were then incubated at 37° C. for 90 minutes with 20 μg/mL Hoechst 33342 (Sigma Chemical, St. Louis, Mo.). The ABC transporter inhibitor verapamil (Sigma) was added at a final concentration of 50 μM to confirm the gating area on flow cytometry. After 90 minutes incubation with indicated drugs, the cells were centrifuged immediately for 5 minutes at 300 g and 4° C. and resuspended in ice-cold HBSS, The cells were kept on ice to inhibit efflux of the Hoechst dye, and 1 μg/mL propidium iodide (PI, BD) were added to discriminate dead cells. Finally, these cells were filtered through a 40 μm cell strainer (BD) to obtain single-suspension cells. Cell dual-wavelength analysis and purification were performed on a dual-laser FACS Vantage SE (BD). Hoechst 33342 can be excited at 355 nm UV light and emitted blue fluorescence with a 450/20 band-pass (BP) filter and red fluorescence with a 675 nm edge filter long-pass (EFLP). A 610 nm dichroic mirror short-pass (DMSP) was used to separate the emission wavelengths. PI-positive (dead) cells were excluded from the analysis.

[13] = tested on: U87MG; assay: as above; type: cell-based; settings: brain cancer
Description: as §4

[14] = tested on: A549; assay: Aldefluor assay (ALDH-positive cell population); type: cell-based; settings: A549, adenocarcinoma
Description: (§5) Briefly, single cells obtained from cell cultures were incubated in an Aldefluor assay buffer containing an ALDH substrate (bodipy-aminoacetaldehyde, BAAA) for 50 minutes at 37° C.

[15] = tested on: CL141; assay: Aldefluor assay (ALDH-positive cell population); type: cell-based; settings: CL141, adenocarcinoma
Description: as §5

[16] = tested on: CL97; assay: Aldefluor assay (ALDH-positive cell population); type: cell-based; settings: CL97, adenocarcinoma
Description: as §5

[17] = tested on: A549 cells; assay: Transwell migration assay; type: cell-based; settings: A549, 10 μM, 24 hours, vs DMSO controls
Text: EMT also plays a critical role in the regulation of cancer sternness. EMT is characterized by enhanced cell migration and invasion.

[18] = tested on: CL97; assay: CL97 (adenocarcinoma) tumor-bearing NOD/SCID mice, standard regimen combination; type: in vivo
[19] = tested on: CL152; assay: CL152 (squamous) tumor-bearing NOD/SCID mice, standard regimen combination; type: in vivo
[20] = tested on: lung adenocarcinoma with EGFR-L858R mutation; assay: Case study, lung adenocarcinoma patient; type: in vivo, human; settings: person; prochlorperazine along with pemetrexed; last followed-up CT
[21] = tested on: NSCLC cell lines; assay: Clonogenic assay in NSCLC cell lines; type: cell-based; settings: different concentration of prochlorperazine
Description: Tested cells were seeded respectively in 6 well plates with 10^4 cells per well for 14 days. […] After removing the crystal violet carefully and rinse with tap water, the colonies were counted manually.
as §3

[22] = tested on: HCC827; assay: Tumor spheroid (sphere formation) assay
Description: In brief, single cells were plated in 6-well ultralow attachment plates (Coming Inc.) at a density of 2,000 cells/mL in tumor spheroid culture medium, DMEM/F12 supplemented with 1% N2 Supplement (Invitrogen), 10 ng/mL basic fibroblast growth factor (Sigma-Aldrich), 10 ng/mL epidermal growth factor (Invitrogen) with 1% penicillin/streptomycin (Invitrogen) at 37° C. in a humidified atmosphere of 95% air and 5% CO2. Cells were cultured twice per week. When passaged, tumor spheres were harvested. Spheroids were dissociated with TrypLE™ (Invitrogen). Spheroids cell counting using the Trypan Blue Exclusion method.

[23] = tested on: CL152; assay: Aldefluor assay (ALDH-positive cell population)

CN1CCN(CCCN2c3ccccc3Sc3ccc(Cl)cc32)CC1 [prochlorperazine]
Clonogenic assay [1]: 5 to 10 µM
Clonogenic assay [2]: 5 to 10 µM
Clonogenic assay [3]: 5 to 10 µM
Clonogenic assay [4]: 3.33 to 10 µM
Sphere formation ([5]; CL97, adenocarcinoma): 0 to 2.5 µM
number of spheres ([5]; CL97 sphere cells, 1, 2.5, 5 and 10 μM, 48 hours, concentration-dependent): reduced the number of spheres
number of sphere cells, co-treatment ([5]; CL97 spheres, co-treatment with gefitinib vs gefitinib alone, 48 hours): significantly decreased the number of sphere cells
Sphere formation [6]: 10 to 15 µM
Sphere formation [7]: 5 to 10 µM
Sphere formation [8]: 10 to 20 µM
Side population [9]: >10 µM
Side population [10]: <5 µM
Side population [11]: <5 µM
Side population [12]: >10 µM
Side population [13]: >10 µM
ALDH^+ assay [14]: <5 µM
ALDH^+ assay [15]: <5 µM
ALDH^+ assay [16]: <5 µM
cell migration [17]: significantly inhibited cell migration
tumor growth, prochlorperazine alone ([18]; 5 mg/kg): could inhibit tumor growth
tumor growth, standard treatment combined with prochlorperazine ([18]; 50 mg/kg pemetrexed + 3 mg/kg cisplatin + 5 mg/kg prochlorperazine): more significantly inhibitory effect of tumor growth than other treatments
tumor growth, prochlorperazine alone ([19]; 5 mg/kg): could inhibit tumor growth
tumor growth, standard treatment combined with prochlorperazine ([19]; 60 mg/kg gemcitabine + 3 mg/kg cisplatin + 5 mg/kg prochlorperazine): more significantly inhibitory effect of tumor growth than other treatments
tumor and pleural effusion on CT [20]: reduced significantly
Clonogenicity of NSCLC cell lines [21]: reduced in a concentration-dependent manner
sphere-forming ability ([22]; HCC827): suppressed the sphere-forming ability
Sphere formation ([22]; HCC827, adenocarcinoma): 5 to 10 µM
spheres number, combination with cisplatin ([22]; HCC827, combination with cisplatin vs prochlorperazine or cisplatin alone): lower spheres number
ALDH^+ CL152 population ([23]; CL152): decreased the ALDH^+ CL152 population in a dose-dependent manner
ALDH^+ assay ([23]; CL152, squamous cell carcinoma): <5 µM

— patent publication US20170105999A1, “METHOD FOR TREATING DRUG RESISTANT CANCER” (NATIONAL YANG MING UNIVERSITY, priority 2014, published 2017)
